# B1: P311: 68 amino acid, 8 kDa cytosolic protein (SEQ ID NO: 1 human, SEQ ID NO: 10 mouse) regulating SOCE (protein)
# chain: MVYYPGLLVWVSQEPFLYKEMEGSLTKGRLPVPKEVNRKKLEEARAASMTPPGSHELCFPNISYL
# B2: His6-tagged P311: full-length P311 with amino-terminal 6x His-tag expressed in E. coli (protein, UniProt Q16612 1-68, looked up)
# chain: MVYYPELFVWVSQEPFPNKDMEGRLPKGRLPVPKEVNRKKNDETNAASLTPLGSSELRSPRISYLHFF
# modifications: full-length N-terminal His6 tag
# notes: full-length P311 with amino-terminal 6x His-tag expressed in E. coli
# How the values were obtained:
# [1] = system: human embryonic palatal mesenchymal (HEPM) cells; assay: Intracellular Ca store release in HEPM cells (Fura-2 ratio, PTI cuvette); type: cell-based; settings: for Mobilization of Ca from endoplasmic reticulum (ER) stores: HEPM cells loaded with Fura-2
# Experimental: (§1) HEPM cells were loaded with 10 μM Fura-2 AM (Invitrogen, Carlsbad, Calif.) for 45 min at 37° C. and allowed to de-esterify for 15 min at 25° C. Cells were then harvested and re-suspended in balanced salt solution (BSS) containing (in mM): 140 NaCl, 2.8 KCl, 2 CaCl2, 2 MgCl2, 10 HEPES, pH 7.2. 2.5×10^6 cells were transferred into the cuvette system of a PTI spectrofluorometer (Photon Technology International, Princeton, N.J.) and the changes in [Ca]i were measured as changes in the ratio of Fura-2 fluorescence at excitation wavelength of 350 nm (F350) and 380 nm (F380), following exposure to various concentrations of thapsigargin, ionomycin or caffeine and ryanodine (C/R). For measurement in 0.5 mM EGTA, cells were centrifuged and re-suspended in BSS without CaCl2, and 0.5 mM EGTA was added immediately before recordings. Measurement of Ca in individual C2C12 myotubes were performed as described before (Shin, D. W. et al. 2003. J. Biol. Chem. 278:3286-3292). All experiments were conducted at 25±2° C.
# SOCE in HEPM cells = assay: SOCE by Mn quenching of Fura-2 in HEPM cells; type: cell-based, human
# Experimental: (§2) Manganese (Mn^2+) is known to be able to permeate into cells via store-operated Ca channels (SOCs), but is impervious to surface membrane extrusion processes or SR uptake by Ca pumps. […] Briefly, to measure the Mn^2+ influx rate through the SOC machinery, thapsigargin (TG), or C/R, was applied to cultured cells or C2C12 myotubes to induce SR Ca depletion in 0 mM extracellular CaCa ([CaCa]o), then 0.5 mM Mn^2+ was added to the extracellular solution. The quenching of Fura-2 fluorescence by Mn^2+ was measured at the Ca-independent excitation wavelength of Fura-2 (360 nm). The decay of Fura-2 fluorescence upon Mn^2+ addition was expressed as percent decrease in Fura-2 fluorescence per unit time (the initial fluorescence is set equal to 100%). For all measurements of SOCE by Mn^2+ quenching, the maximally quenched fluorescence signal was established at the end of the experiment by lysing the cells with 1% Triton, and set equal to 0% fluorescence.
# SOCE in C2C12 myotubes = assay: SOCE by Mn quenching of Fura-2 in C2C12 myotubes; type: cell-based, mouse
# Experimental: as §1, with “Measurement of Ca in individual C2C12 myotubes were performed as described before (Shin, D. W. et al. 2003. J. Biol. Chem. 278:3286-3292).” left out
# as §2
# SOCE in NRP-154 cells = settings: 10 μM 2-APB, NRP-Con and NRP-Bax cells, TG-depleted
# Experimental: The role of SOCE in Ca signaling in NRP-154 cells was examined. […] Following ER Ca depletion (200 s treatment), 0.5 mM MnCl2 was added into cuvettes containing 1×10^6 NRP-154 cells loaded with Fura-2. The quenching of Fura-2 fluorescence by the entry of Mn^2+ provided a quantitative assay of SOCE. Specifically, the slope of reduction of Fura-2 fluorescence with time reflected the degree of SOCE activation.
# STIM1 = target: T1, STIM1 (Homo sapiens, UniProt Q13586); assay: Co-immunoprecipitation of P311 with STIM1 in CHO cell lysates; type: binding; settings: anti-P311 and anti-STIM1
# T1 construct: host or cells: CHO cells (transient transfection)
# Experimental: (§3) Next, the interaction of P311 with SOCE molecular machinery was examined experimentally. The interaction of P311 with known components of SOCE, such as STIM1 and Orai1, was studied. A GFP-myc-Orai1 plasmid and the mammalian expression plasmid containing the human STIM1 cDNA (OriGene, Inc.) were used. The plasmids were transfected into CHO cells and 36 hours after transfection, total cell lysates from CHO cells transiently expressing GFP-myc-Orai1 were incubated with either a polyclonal antibody against P311, or an anti-myc monoclonal antibody, with normal rabbit IgG serving as the control. […] Similar results were obtained when co-IP assays were repeated using reversible cross-linker DSP and different detergents in cell lysis buffer, including Triton X-100, NP-40 and CHAPS.
# Orai1 = target: T2, Orai1 (Homo sapiens, UniProt Q96D31); assay: Co-immunoprecipitation of P311 with Orai1 in CHO cell lysates; type: binding; settings: CHO lysates expressing GFP-myc-Orai1; anti-myc and anti-P311
# T2 construct: expressed in transfected cells; host or cells: CHO cells (transient transfection, lysate 36 h after transfection)
# Experimental: as §3
# [2] = Solubility of recombinant P311 expressed in E. coli; type: physicochemical; settings: E. coli lysate, a portion of the overexpressed protein
# Experimental: Using standard recombinant DNA technology, the full-length P311 protein was cloned into a T7-based expression plasmid with a 6× His-tag at either the amino-terminus (pET15b, Novagen) or the carboxy-terminus (pET21b, Novagen) and as a fusion protein with glutathione S-transferase (GST) in plasmid pGEX-2T (Pharmacia). In addition, the untagged P311 was cloned into a T7-based bacterial expression vector pG5 (Alexander, P. et al. 1992. Biochemistry 31:3597-3603). The bacterial host is grown for 12-14 hours at room temperature or for 4 hours at 37° C. after induction with 0.2 mM IPTG. Robust expression for the amino-terminal His6-tagged P311 protein […] was observed; the amino-terminal His6-tagged P311 protein was soluble. The soluble fraction of the His6-tagged P311 protein in the E. coli lysate was purified over a Ni-NTA agarose column. The protein was eluted by 250 mM immidazole and further purified by […] chromatography (Source-15S, Pharmacia) and gel-filtration chromatography (Superdex-200, Pharmacia). The P311 protein was purified to greater than 80% homogeneity as judged on SDS-PAGE. The concentration of P311 was determined by spectroscopic measurement at 280 nm.
# T2 sequence (Q96D31 whole entry, species assumed): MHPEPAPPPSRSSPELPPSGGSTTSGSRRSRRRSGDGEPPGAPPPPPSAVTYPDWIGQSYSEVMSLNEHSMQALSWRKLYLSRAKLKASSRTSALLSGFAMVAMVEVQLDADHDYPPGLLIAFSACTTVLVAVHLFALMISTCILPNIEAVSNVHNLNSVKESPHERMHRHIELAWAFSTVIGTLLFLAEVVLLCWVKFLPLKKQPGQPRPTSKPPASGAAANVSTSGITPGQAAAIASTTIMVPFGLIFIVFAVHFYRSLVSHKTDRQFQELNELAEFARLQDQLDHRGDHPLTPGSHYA
# T1 sequence (Q13586 23-685): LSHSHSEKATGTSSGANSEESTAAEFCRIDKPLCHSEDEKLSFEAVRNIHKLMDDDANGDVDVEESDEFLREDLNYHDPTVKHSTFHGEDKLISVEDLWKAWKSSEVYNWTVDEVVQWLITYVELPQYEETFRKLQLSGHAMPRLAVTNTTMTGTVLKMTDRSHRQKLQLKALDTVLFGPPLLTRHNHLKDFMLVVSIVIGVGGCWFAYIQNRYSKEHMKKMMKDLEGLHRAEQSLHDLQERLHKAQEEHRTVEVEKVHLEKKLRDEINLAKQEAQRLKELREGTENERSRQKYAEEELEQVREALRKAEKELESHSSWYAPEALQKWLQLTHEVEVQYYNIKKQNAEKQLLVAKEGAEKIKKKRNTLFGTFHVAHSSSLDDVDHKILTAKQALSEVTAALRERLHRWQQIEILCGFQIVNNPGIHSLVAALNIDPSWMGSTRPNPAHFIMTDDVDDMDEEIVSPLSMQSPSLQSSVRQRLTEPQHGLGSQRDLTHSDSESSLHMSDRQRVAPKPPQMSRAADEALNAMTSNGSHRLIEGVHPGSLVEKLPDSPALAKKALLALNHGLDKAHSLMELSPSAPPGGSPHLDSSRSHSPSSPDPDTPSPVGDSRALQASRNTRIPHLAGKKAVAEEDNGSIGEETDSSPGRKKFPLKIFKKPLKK
molecule,measurement,setting,value
"Nc1ncnc2c1ncn2[C@@H]1O[C@H](COP(=O)(O)OP(=O)(O)OP(=O)(O)O)[C@@H](O)[C@H]1O [ATP, adenosine triphosphate]",Ca release on ATP stimulation in LPS-treated cells,"[1]; ATP 1 or 3 mM, LPS-treated HEPM cells",no effect
same,Mobilization of Ca from endoplasmic reticulum (ER) stores,[1],not responsive
C[C@H](CCC(=O)O)C[C@H](C)C[C@H](C)C(=O)/C=C(\O)[C@H](C)C[C@H](C)C/C=C/[C@@H](C)[C@@H](O)[C@@H](C)[C@@H](O)C[C@@H]1CC[C@@](C)([C@H]2CC[C@@](C)([C@@H](C)O)O2)O1 [ionomycin],Mobilization of Ca from endoplasmic reticulum (ER) stores,[1],reveals a large store of Ca available for release
same,Activation of SOCE following Ca store depletion,SOCE in HEPM cells,rapid activation of SOCE
[K+] [potassium],Mobilization of Ca from endoplasmic reticulum (ER) stores,[1],not responsive
"C1CCc2nnnn2CC1 [PTZ, pentylenetetrazol]",Effect on SOCE in shRNA-treated myotubes,SOCE in C2C12 myotubes; C2C12 myotubes transfected with shRNA against P311,absent
same,SR Ca filling status,SOCE in C2C12 myotubes; C2C12 myotubes treated with PTZ,without affecting the SR Ca filling status
same,Activation of SOCE (Mn entry),"SOCE in C2C12 myotubes; C2C12 myotubes, 20 mM PTZ, no SR Ca depletion",induced the activation of SOCE
C/C=C(/C)C(=O)O[C@H]1C(C)=C2[C@H]([C@@H]1OC(=O)CCCCCCC)[C@@](C)(OC(C)=O)C[C@H](OC(=O)CCC)[C@@]1(O)[C@H]2OC(=O)[C@@]1(C)O [thapsigargin],Activation of SOCE following Ca store depletion,SOCE in HEPM cells,rapid activation of SOCE
"NCCOB(c1ccccc1)c1ccccc1 [2-APB, 2-aminoethoxydiphenyl borate]",Effect on SOCE (Mn quenching of Fura-2),SOCE in NRP-154 cells,inhibited SOCE
same,Effect on PTZ-triggered Mn quenching of Fura-2 fluorescence,SOCE in C2C12 myotubes; C2C12 myotubes,inhibited
same,Effect on TG-initiated Mn entry through SOCE,"SOCE in C2C12 myotubes; C2C12 myotubes, 2-APB 20 μM",blocked
B1,Co-immunoprecipitation with STIM1,STIM1,could not immunoprecipitation
same,Co-immunoprecipitation with Orai1,Orai1,physical interaction between P311 and Orai1
B2,Solubility of overexpressed protein,[2],soluble

# Reference: US8071533B2, “Compositions and methods for modulating store-operated calcium entry” (University of Medicine and Dentistry of New Jersey, priority 2006, dated 2011)
